Measured values taken from patent US20030180345A1, “Compositions and methods for inhibiting islet dysfunction and autoimmune disorders” (priority 2000, published 2003).

Legend:
fetal pancreas = assay: Fetal pancreatic vascularization with taurine supplementation; type: in vivo, Wistar rats; conditions: LP diet + taurine in drinking water; fetal day 21.5
Protocol: Animals and diets were as described above in Example 1. The fetal pancreas was removed at day 21.5. Vascular density, expressed as a percent of area, and number of blood vessels per unit area were evaluated.

islet cells = assay: Islet cell proliferation with maternal dietary taurine supplementation (BrdU immunostaining); type: in vivo, Wistar rats
Protocol: Adult virgin female Wistar rats were caged overnight with males and copulation was verified the next morning. Animals were maintained at 25° C. with a 10 h-14 h dark-light cycle. Pregnant rats were divided into four groups and fed one of the following isocaloric diets, either with or without taurine supplemented in the drinking water. […] The composition of the basal and low protein diets were described previously by Snoeck et a/.1990 (Biol. Neonate 57, 107-118). The diets were purchased from Hope Farms (Woerden, Holland). Animals in both the groups had free access to water at all times. Animals were divided into four groups to assess various parameters at different time periods. Females were sacrificed at 21.5 days of gestation by decapitation and fetuses were removed in order to evaluate parameters at fetal day 21.5 (F 21.5). Alternatively, animals gave birth and offspring were sacrificed at post-natal day 12, 14 or 30 (PN 12, PN 14, and PN 30, respectively). Bromodeoxyuridine (BrdU) incorporation was evaluated by immunostaining as described by […] et al., (Endocrinology 1999;140: 4861-4873).

IGF-II = assay: Islet IGF-II immunoreactivity with dietary taurine supplementation; type: in vivo, Wistar rats; conditions: LP diet with taurine
Protocol: Animals and diets were prepared as described in Example 7. The pancreas was removed, and IGF-II immunoreactivity was evaluated according to a method described by […] et al., (Endocrinology 1999;140: 4861-4873). Expression of IGF-II, considered a survival factor for cells, was measured as an indicator of the overall health of the β cells.

Fas = assay: Islet Fas immunoreactivity with dietary taurine supplementation; type: in vivo, Wistar rats; conditions: post-natal day 14
Protocol: Animals and diets were prepared as described in Example 8. The pancreas was removed, and the presence of Fas, Fas ligand, inducible nitric oxide synthase (iNOS) and vascular endothelial growth factor (VEGF) were evaluated in pancreatic sections using immunoreactivity.

fetal islet β cells = assay: SNP-induced apoptosis in cultured fetal islets (TUNEL, confocal microscopy); type: cell-based, Wistar rats; conditions: for in vitro apoptotic rate: absence of SNP
Protocol: Animals and Diets. Adult virgin female Wistar rats were caged overnight with males and copulation was verified the next morning. Animals were maintained at 25° C. with a 10 h-14 h dark-light cycle. Pregnant rats were divided into two groups and fed one of the following isocaloric diets: either a control diet (C) containing 20% protein or a low protein diet (LP) containing 8% protein. The composition of the diet was as described previously by Snoeck et al. 1990 (Biol. Neonate 57, 107-118). The diets were purchased from Hope Farms (Woerden, Holland). Animals in both the groups had free access to water at all times. At 21.5 days of gestation, females were sacrificed by decapitation and fetuses removed.
Islet culture and treatment. Fetal islets were isolated as described by Mourmeaux et al. 1985 (Molecular and Cellular Endocrinology 39:237-246). Islets were cultured in 35 mm Petri-dishes (Falcon plastics, Los Angeles, Calif.) in RPMI 1640 medium (Gibco, Grand Island, N.Y., USA) with 10% Fetal Bovine Serum and antibiotics (penicillin 200 U/ml, streptomycin 0.2 mg/ml). Petri dishes were incubated at 37° C. with 5% CO2 in air. The culture medium was changed daily after the second day. On the 5th day of culture, islets were rinsed twice with serum free DME/F12 medium (1:1, v/v, Gibco, Paisley, Scotland) and subsequently incubated for 42 hours in this medium. […]
TUNEL method for evaluating apoptosis. Apoptosis was evaluated by the TUNEL method described herein, and visualized with confocal microscopy. Cultured islets were fixed in methanol and stored at −20° C. until analysis. The tissue was then washed with phosphate buffered saline (PBS) for 3 min, and a terminal deoxynucleotidyl transferase (TdT) reaction buffer (50 μl) was added. The 50 μl of TdT solution was prepared using 10 μl of 5× concentrated buffer solution (1 mol/l potassium cacodylate; 125 mmol/l Tris-HCl, pH 6.6; 1.26 mg bovine serum albumin). Cobalt chloride (5 μl of 25 mmol/l), 0.5 μl (12.5 units) of TdT (both from Boehringer Mannheim, Germany), and 0.25 nmoles of BODIPY-FL-X-14-dUTP (Molecular Probes, Eugene, Oreg. USA) were added, along with distilled water, up to 50 μl. Islets were incubated in Petri dishes with the TdT reaction buffer for 60 min at 37° C., then rinsed twice with 15 mmol/l EDTA (pH 8.0) in PBS and once with 0.1% Triton X-100 in PBS. Then, 2 ml of PBS containing 2.5 μg/ml of propidium iodide (Molecular Probes, Eugene, Oreg. USA) was added to the dishes for 5 min. Finally, islet cells were washed with 15 mmol/l EDTA (pH 8.0). Islet cells were then double-labelled for apoptotic nuclei, showing the BODIPY-FL-dUTP label in […] and total nuclei with propidium iodide in red.
Confocal microscopy. Staining probes were visualised through a confocal laser scanning microscopy system (MRC-1024 UV; BIO-RAD, UK) equipped with Argon ion and Krypton/Argon ion lasers. BODIPY-FL was excited at 503 nm, ethidium bromide at 510 nm, propidium iodide at 536 nm and Hoechst 33342 at 346 nm. The emissions were recorded respectively at 522/32 nm, 605/32 nm and 455/30 nm. Four to six optical sections were collected at every 15 μm through the islet. The number of BODIPY-FL-positive or ethidium bromide-positive nuclei were reported and expressed as a percentage of the total number of nuclei.
Animals, diets, and fetal islet isolation procedures were conducted as described in Example 1.

For `NCCS(=O)(=O)O` [taurine, 2-aminoethylsulfonic acid], the “blood vessel numbers per unit area” value (fetal pancreas) was “restoring both vascularization parameters to the level of the control groups”, the “vascular density (percent of area)” value (fetal pancreas) was “restoring both vascularization parameters to the level of the control groups” and the “β cell proliferation rate (BrdU incorporation)” value (islet cells; C+Taurine, 2.5% taurine in maternal drinking water) was “did not significantly increase”. The “islet cell proliferation rate (BrdU incorporation)” value (islet cells; LP+Taurine, 2.5% (weight/volume) taurine in maternal drinking water) was “restore the proliferation rate to a level not significantly different from the control diet”, the IGF-II immunoreactivity (IGF-II; fetal period (F21.5)) was “increased IGF-II immunoreactivity to a level consistent with the C diet animals” and the IGF-II immunoreactivity (IGF-II; post-natal) was “restored IGF-II immunoreactivity levels to the point that the control IGF-II level was surpassed”. For the same molecule, the “immunoreactive Fas within islets” value (Fas) was “reduced”, the “reduction of SNP-induced apoptosis” value (fetal islet β cells; 0.3 mmol/l taurine, SNP 100 μmol/l, LP islets) was 60% and the “reduction of SNP-induced apoptosis” value (fetal islet β cells; 0.3 mmol/l taurine, SNP 100 μmol/l, control islets) was 30%. For the same molecule, the “in vitro apoptotic rate” value (fetal islet β cells; control diet (C) islets, 0.3 mmol/l taurine) was 1.5±0.2%, the “in vitro apoptotic rate” value (fetal islet β cells; control diet (C) islets, 3 mmol/l taurine) was 1.4±0.3% and the “in vitro apoptotic rate” value (fetal islet β cells; low protein diet (LP) islets, 0.3 mmol/l taurine) was 2.1±0.3%. The “in vitro apoptotic rate” value (fetal islet β cells; low protein diet (LP) islets, 3 mmol/l taurine) was 2.1±0.4% and the “percentage of β cells positive for apoptosis” value (fetal islet β cells; taurine 0.3 or 3 mmol/l, SNP 100 μmol/l, both diet groups) was “significantly decreased”.
